The results in this text go back to article PMC10458893, “Design of Protegrin-1 Analogs with Improved Antibacterial Selectivity” (Pharmaceutics, 2023).

In one data set the test system is P. aeruginosa PAO1. The data set is classed as cell-based, Pseudomonas aeruginosa. As to conditions: PAO1, 24 h. In a few lines: (§1)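 Peptides were tested by two-fold serial broth dilution in microplates and incubated 24 h. Resazurin (0.1 mg/mL) was then added for a further 2 h. MIC was the lowest peptide concentration giving no resazurin color change; values are medians of at least three independent experiments in triplicate.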

Another data set has as its system P. aeruginosa ATCC 27853. Type of data set: cell-based, Pseudomonas aeruginosa. The conditions noted are these: ATCC 27853, 24 h. In a few lines: as §1
Data set [1] relates to human keratinocyte cell line (HaCaT). Nature of the data set: Cytotoxicity MTT assay. The conditions noted are these: 18 h, 128. Type of data set: cell-based. Summed up: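 Colorimetric MTT dye-reduction assay on human HaCaT keratinocytes, with peptide-free wells as 100% survival. Each peptide tested in two separate experiments.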
(In general: Formazan colour is commonly taken as a measure of viable cells.)

In data set [2] the test system is K. pneumoniae ATCC 700603. Type of data set: cell-based, Klebsiella pneumoniae. As to conditions: ATCC 700603, 24 h. Summed up:
as §1

Another data set relates to S. aureus ATCC 29213. The data set is classed as cell-based, Staphylococcus aureus. The conditions noted are these: ATCC 29213, 24 h. Summed up: as §1
A further data set deals with S. aureus 209P. The data set is classed as cell-based, Staphylococcus aureus. The conditions noted are these: 24 h. Summed up:
as §1

Data set [3] has as its system E. coli ATCC 25922. Nature of the data set: Systemic septicemia infection mice model. Type of data set: in vivo. As to conditions: BALB/c mice n = 5, i.p. E. coli ATCC 25922 10^6 CFU with mucin, 5 mg/kg i.p. at 1 h and 4 h, 7 days. The procedure: Experiments were performed with male and female 8–10-week-old BALB/c mice (22–24 g, “Andreevka” laboratory animal nursery FMBA, Russia) according to the previously described method. Briefly, a total of 3 groups of 5 mice per group were infected by intraperitoneal (i.p.) injection of the bacterial inoculum (E. coli ATCC 25922), 10^6 colony forming units (CFU) per animal, in the presence of mucin. All the animals received two i.p. injections: 1 h and 4 h after bacterial challenge. The first group received ciprofloxacin (Sigma-Aldrich, St. Louis, MO, USA) as a positive control at a dose of 10 mg/kg per injection. The second group received peptide [V16R] at a dose of 5 mg/kg per injection. The third group received PBS as a vehicle control. Animals were monitored for 7 days post-infection. All the surviving mice were euthanized by CO2 asphyxiation. The spleen was aseptically removed, homogenized, serially diluted, and plated on Endo agar to detect CFU in a sample.

For data set [4], the system named is freshly isolated human erythrocytes (hRBCs). In words: Hemolysis assay (hemoglobin release). Type of data set: cell-based. As to conditions: red cells of human, 64. The text has this: To assess the hemolytic activity of the compounds, freshly isolated human erythrocytes (hRBCs) were used according to the methodology described in a previous study. Melittin was used as a positive peptide control that induces significant hemolysis. Isotonic phosphate buffer (PBS) served as a negative control, while 0.1% Triton X-100 solution was used as a control for complete hemolysis.

The next data set concerns E. coli ML35p. Type of data set: cell-based. The conditions noted are these: ML35p, 24 h. Summed up:
as §1

Data set [5] has as its system E. coli ATCC 25922. Type of data set: cell-based. The conditions noted are these: ATCC 25922, 24 h. Summed up: as §1
Data set [6] has as its system Acinetobacter baumannii (strain XDR CI 2675). The data set is classed as cell-based. As to conditions: strain XDR CI 2675, 24 h. In a few lines: as §1
The subject of another data set is all the test strains. The data set is classed as cell-based. The conditions noted are these: geometric mean over the 10 test strains. Summed up: as §1
A further data set deals with E. coli BW 25113. Type of data set: cell-based. As to conditions: two-fold serial dilutions, 24 h incubation, resazurin read-out; median of at least three independent experiments in triplicate. Summed up:
as §1

The subject of another data set is M. luteus B-1314. Type of data set: cell-based, Micrococcus luteus. The conditions noted are these: B-1314, 24 h. In a few lines:
as §1

Molecules are shown by their SMILES. Converted amounts (≈) assume the structure as drawn. Positions of bridges follow the written chain, without caps; N, C: chain ends. Residues, ends and D or L forms follow the SMILES beside them.

Consider `CC(C)C[C@H](NC(=O)[C@H](CCCNC(=N)N)NC(=O)CNC(=O)CNC(=O)[C@@H](N)CCCNC(=N)N)C(=O)N[C@H]1CSSC[C@@H](C(=O)N[C@@H](CCCNC(=N)N)C(=O)NCC(=O)N[C@@H](CCCNC(=N)N)C(=O)O)NC(=O)[C@H](C(C)C)NC(=O)[C@@H]2CSSC[C@H](NC(=O)[C@H](Cc3ccc(O)cc3)NC1=O)C(=O)N[C@@H](CCCNC(=N)N)C(=O)N[C@@H](CCCNC(=N)N)C(=O)N[C@@H](CCCNC(=N)N)C(=O)N[C@@H](Cc1ccccc1)C(=O)N2` [[V16R]] (H-RGGRLCYCRRRFCVCRGR-OH; disulfide 6-15, 8-13), for which, in the data set with P. aeruginosa PAO1, the “MIC, P. aeruginosa PAO1” value amounted to 1 µM (≈ 2.21 µg/mL). The “MIC, P. aeruginosa ATCC 27853” value in the data set on P. aeruginosa ATCC 27853 was determined as 0.5 µM (≈ 1.11 µg/mL). For the same compound, the “Cell Viability, % (128 μM)” value in [1] was 80.0 (± 8.62) %. The “MIC, K. pneumoniae ATCC 700603” value in [2] amounted to 4 µM (≈ 8.85 µg/mL). In addition, the “MIC, S. aureus ATCC 29213” value against S. aureus ATCC 29213 is 4 µM (≈ 8.85 µg/mL). Also, the “MIC, S. aureus 209P” value against S. aureus 209P was determined as 4 µM (≈ 8.85 µg/mL). The Deaths of mice result in the data set on E. coli ATCC 25922 [3] was “two out of five”. The “Therapeutic efficacy (survival)” value in the data set on E. coli ATCC 25922 [3] (chloride form) turned out to be 60%. In data set [4], the “Hemolytic activity, % (64 μM)” value was 2.8 (±0.2) %. For the same compound, the “MIC, E. coli ML35p” value against E. coli ML35p amounted to 0.25 µM (≈ 0.553 µg/mL). In addition, the “MIC, E. coli ATCC 25922” value in the data set with E. coli ATCC 25922 [5] is 0.5 µM (≈ 1.11 µg/mL). In addition, the “MIC, A. baumannii” value in [6] is 0.125 µM (≈ 0.277 µg/mL). In the data set with all the test strains, the “MIC (GM), geometric mean of the peptide's MICs against all the test strains” value turned out to be 0.8 µM. Besides, in the data set on E. coli BW 25113, the “MIC, E. coli BW 25113” value was 0.25 µM (≈ 0.553 µg/mL). In addition, the “MIC, M. luteus B-1314” value against M. luteus B-1314 turned out to be 1 µM (≈ 2.21 µg/mL).
